Results: patent publication US20250255845A1, “USE OF INTERLEUKIN (IL)-17A INHIBITOR IN PREPARATION OF MEDICAMENT FOR TREATING INFLAMMATORY DISEASE” (Xiangnan University, priority 2024, published 2025)

How the values were obtained:
RAW264.7 cells = test: CCK-8 cell viability / cytotoxicity; format: cell-based, mouse; conditions: 24 h
Protocol: RAW264.7 cell culture: mouse mononuclear macrophages (RAW264.7, ATCC) are cultured in a complete medium containing 10% fetal bovine serum (FBS), 1% double antibodies (penicillin and streptomycin), and 89% DMEM at 37° C. and 5% CO2. In this experiment, RAW264.7 cells from passages 3 to 8 are used for related test. RAW264.7 cells in the logarithmic growth phase were inoculated into a 96-well plate and the cell density was adjusted to 5×10^3 cells/well. After cultured for 24 h, the cells were stably adhered to the wall. The original complete medium was removed and different concentrations of Tan (5, 10, 20, 40, 80, 160, 320 μM) were added to allow treatment with or without LPS (100 ng/ml) for 24 h. Then, 10 μL of CCK-8 solution was added to each well and incubated at 37° C. for 1 h. The OD value of each sample at 450 nm was detected by a microplate reader, and the cell viability was calculated.

IL-17A = test: Immunohistochemistry of IL-17A in dorsal skin of IMQ-induced psoriasis mice; format: in vivo, Balb/c mice; conditions: preventive and therapeutic administration groups; dose-dependent
Protocol: (§1) Balb/c mice (female, 6-8 weeks, 20+2 g), with certificate number [SCXK (Xiang) 2021-0002], were purchased from Hunan SJA Laboratory Animal (Changsha, China). All mice were housed in an specific pathogen free (SPF)-grade animal room with a 12 h light/12 h dark cycle, and experiments were started after the mice were acclimated for one week. Next, 96 mice were randomly divided into 12 groups (8 mice/group), including Control group, Control solvent (white vaseline) group, IMQ group, IMQ solvent (white vaseline) group, preventive administration of positive medicament Clo group (IMQ+Clo 55 mg), therapeutic administration of positive medicament group (IMQ+Clo (A) 55 mg), preventive administration of Tan low-dose group (IMQ+Tan 40 μg/cm^2), medium-dose group (IMQ+Tan160 μg/cm^2), and high-dose group (IMQ+Tan 640 μg/cm^2), and therapeutic administration of Tan low-dose group (IMQ+Tan (A) 40 μg/cm^2), medium-dose group (IMQ+Tan (A) 160 μg/cm^2), and high-dose group (IMQ+Tan (A) 640 μg/cm^2). After the mice were anesthetized, a 2 cm×3 cm area on the back was selected for hair removal. Modeling began 48 h after hair removal, and all modeling mice were applied with 65 mg (55 mg on the back and 5 mg on each ear) of IMQ cream every morning for 10 d. […]

NO = test: Griess assay of LPS-induced NO production in RAW264.7 cells; format: cell-based, mouse
Protocol: RAW264.7 cell culture: mouse mononuclear macrophages (RAW264.7, ATCC) are cultured in a complete medium containing 10% fetal bovine serum (FBS), 1% double antibodies (penicillin and streptomycin), and 89% DMEM at 37° C. and 5% CO2. In this experiment, RAW264.7 cells from passages 3 to 8 are used for related test.
LPS (100 ng/ml) is added for stimulation, with or without Tan, and the cell supernatant is collected to detect the contents of NO, IL-23, IL-17A, TNF-α, and IL-6 in the cell supernatant. The cell lysate is collected and the protein expressions (STAT3, p-STAT3 (Ser727), and p-STAT3 (Tyr705)) are detected by Western blot. Total cell RNA is extracted and real-time fluorescence quantitative polymerase chain reaction (PCR) is conducted to detect the expression levels of IL-23, IL-17A, TNF-α, and IL-6 mRNA.
RAW264.7 cells in the logarithmic growth phase were inoculated into a 48-well plate and the cell density was adjusted to 1.0×10^5 cells/well. After cultured for 24 h, the cells were stably adhered to the plate. The original medium was removed and different concentrations (5, 10, 20, 40 μM) of Tan were added to allow pretreatment for 1 h. […] OD540 nm value of the cell supernatant was detected according to the instructions of a Griess kit, and the NO content in the cell supernatant was calculated.

endothelial cells = conditions: CN101947215A; cited from earlier work
[1] = system: IMQ-induced psoriasis mice; test: H&E histological evaluation of dorsal skin of IMQ-induced psoriasis mice; format: in vivo, Balb/c mice; conditions: dose-dependent
Protocol: as §1

[2] = system: IMQ-induced psoriasis mice; test: Dorsal skin lesions of IMQ-induced psoriasis mice; format: in vivo, Balb/c mice
Protocol: Balb/c mice (female, 6-8 weeks, 20+2 g), with certificate number [SCXK (Xiang) 2021-0002], were purchased from Hunan SJA Laboratory Animal (Changsha, China). All mice were housed in an specific pathogen free (SPF)-grade animal room with a 12 h light/12 h dark cycle, and experiments were started after the mice were acclimated for one week. Next, 96 mice were randomly divided into 12 groups (8 mice/group), including Control group, Control solvent (white vaseline) group, IMQ group, IMQ solvent (white vaseline) group, preventive administration of positive medicament Clo group (IMQ+Clo 55 mg), therapeutic administration of positive medicament group (IMQ+Clo (A) 55 mg), preventive administration of Tan low-dose group (IMQ+Tan 40 μg/cm^2), medium-dose group (IMQ+Tan160 μg/cm^2), and high-dose group (IMQ+Tan 640 μg/cm^2), and therapeutic administration of Tan low-dose group (IMQ+Tan (A) 40 μg/cm^2), medium-dose group (IMQ+Tan (A) 160 μg/cm^2), and high-dose group (IMQ+Tan (A) 640 μg/cm^2). After the mice were anesthetized, a 2 cm×3 cm area on the back was selected for hair removal. Modeling began 48 h after hair removal, and all modeling mice were applied with 65 mg (55 mg on the back and 5 mg on each ear) of IMQ cream every morning for 10 d. In the Tan preventive administration groups, the low-dose group (40 μg/cm^2), the medium-dose group (160 μg/cm^2), and the high-dose group (640 μg/cm^2) were topically administered to the back and ears every afternoon starting from the first day of modeling for 10 d. In the Tan therapeutic administration groups, the low-dose group (40 μg/cm^2), the medium-dose group (160 μg/cm^2), and the high-dose group (640 μg/cm^2) were topically administered to the back and ears every afternoon starting from the 3rd day of modeling for 10 d. The mice in the preventive positive medicament group received Clo (55 mg/mouse, 45 mg on the back, 5 mg on each ear) treatment from the first day of modeling, and the mice in the therapeutic positive medicament group received Clo (55 mg/mouse, 45 mg on the back, 5 mg on each ear) treatment from the third day of modeling.

p-STAT3 = test: Immunohistochemistry of p-STAT3 in dorsal skin of IMQ-induced psoriasis mice; format: in vivo, Balb/c mice; conditions: preventive and therapeutic administration groups; dose-dependent
Protocol: as §1

COc1ccc(-c2cc(=O)c3c(OC)c(OC)c(OC)c(OC)c3o2)cc1 [Tan, tangeretin]
toxicity to RAW264.7 cells (cell viability) (RAW264.7 cells; 0-40 μM, P>0.05): did not produce significant toxicity | cell viability of RAW264.7 cells (RAW264.7 cells; Tan concentration higher than 40 μM, P<0.05): decreased | expression level of IL-17A in the dorsal skin (IL-17A): significantly reduced | inhibitory effect on NO compared with positive control Clo (NO; 40 μM, 24 h): comparable to that of the positive control | NO content in the cell supernatant (NO; 5-40 μM, 24 h, vs LPS group, P<0.001, dose-dependent): significantly reduced | inhibitory effect on the production of NO (NO; 48 h): strong inhibitory effect | proliferation of endothelial cells / angiogenesis (endothelial cells): inhibit the proliferation of endothelial cells | H&E histology of dorsal skin (epidermal thickness, hyperkeratosis, inflammatory infiltration) ([1]; preventive Tan group vs IMQ group): reduced epidermal tissue thickness, reduced hyperkeratosis, and slight inflammatory cellular infiltration | H&E histology of dorsal skin (epidermal thickness, hyperkeratosis, inflammatory infiltration) ([1]; therapeutic Tan group, especially high-dose, vs IMQ group): reduced epidermal tissue thickness, reduced hyperkeratosis, and slight inflammatory cellular infiltration | improvement of dorsal skin lesions compared with positive control Clo ([2]; high-dose (640 μg/cm^2) preventive and therapeutic groups): comparable to that of the positive control Clo | erythema and scaling of dorsal skin ([2]; preventive and therapeutic topical administration, 40/160/640 μg/cm^2, vs IMQ group, dose-dependent): significant reduction in erythema and scaling | scales and erythema on the dorsal skin ([2]; preventive group (from first day of modeling)): almost disappeared | back scales after treatment ([2]; therapeutic group (from 3rd day of modeling)): only a minimal amount of back scales remained | expression level of p-STAT3 in the dorsal skin (p-STAT3): significantly reduced
